Measured values as given in patent US12384753B2, “17-beta-hydroxysteroid dehydrogenase type 13 inhibitors and methods of use thereof” (Enanta Pharmaceuticals, Inc., priority 2021, dated 2025).

Target: Recombinant human HSD17B13 (Homo sapiens (Human), UniProt Q7Z5P4)
Test: HSD17B13 rapid-fire mass spectrometry assay (RF/MS assay)
Format: biochemical
Details: inhibition of HSD17B13; LTB4 10 μM, NAD+ 0.5 mM, RT 3 h; IC50 ranges A-E
Method in brief: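 Sf9-expressed human HSD17B13 (80 nM) with 10 μM LTB4 and 0.5 mM NAD+, incubated with compound (0–100 μM) for 3 h at RT in Tris pH 7.5/BSA/Tween-20. After formic acid quench, LTB4 conversion to 12-oxo-LTB4 measured by RapidFire MS/MS. IC50 from normalised residual activity, duplicates.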

Sequence of Recombinant human HSD17B13 (Q7Z5P4 20-300): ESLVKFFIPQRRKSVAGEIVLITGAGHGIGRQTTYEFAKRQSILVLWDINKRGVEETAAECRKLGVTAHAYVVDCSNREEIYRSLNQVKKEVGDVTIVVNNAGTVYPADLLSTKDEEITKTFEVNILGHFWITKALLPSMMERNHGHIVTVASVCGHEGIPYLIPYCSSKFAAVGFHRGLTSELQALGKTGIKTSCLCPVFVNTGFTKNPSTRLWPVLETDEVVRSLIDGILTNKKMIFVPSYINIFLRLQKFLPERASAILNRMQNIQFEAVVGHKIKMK

IC50	SMILES
< 0.1 µM	CC[C@H]1CC[C@H](c2ccc(-c3nc(S(=O)(=O)Nc4ccc(C(=O)O)cc4OC)cs3)cc2)CC1 [Example 352]
< 0.1 µM	COc1cc(C(=O)O)ccc1NS(=O)(=O)c1ccc(-c2ccccc2F)s1 [Example 201]
< 0.1 µM	COc1cc(C(=O)O)c(F)cc1NS(=O)(=O)c1csc(-c2ccc(C3=CCC(C)(C)CC3)cc2C(F)(F)F)n1 [Example 522]
0.1 to 0.5 µM	COc1cc(C(=O)O)ccc1NS(=O)(=O)c1csc(-c2ccc(C)cc2)n1 [Example 97]
0.5 to 1 µM	COc1cc(C(=O)O)ccc1NS(=O)(=O)c1csc(N2CCN(c3ccccc3)CC2)n1 [Example 257]
< 0.1 µM	COc1cc(C(=O)O)c(F)cc1NS(=O)(=O)c1coc(-c2ccc([C@H]3CC[C@H](C(F)(F)F)CC3)cc2C(F)(F)F)n1 [Example 679]
1 to 100 µM	Cc1cc(C(=O)O)ccc1NS(=O)(=O)c1cnc(-c2ccc(F)cc2)s1 [Example 20]
< 0.1 µM	COc1cc(C(=O)O)ccc1NS(=O)(=O)c1csc(-c2ccc(C3CCC(OC(F)(F)F)CC3)cc2)n1 (centres unmarked) [Example 367]
< 0.1 µM	COc1cc(C(=O)O)c(F)cc1NS(=O)(=O)c1csc(-c2ccc([C@H]3CC[C@H](C(C)C)CC3)c(OC(C)C)c2F)n1 [Example 587]
< 0.1 µM	COc1cc(C(=O)O)c(F)cc1NS(=O)(=O)c1csc(C#Cc2ccc(F)cc2)n1 [Example 222]
0.1 to 0.5 µM	COc1cc(C(=O)O)ccc1NS(=O)(=O)N1Cc2nc(C3=CCC(F)(F)CC3)sc2C1 [Example 358]
0.5 to 1 µM	COc1cc(C(=O)O)ccc1NS(=O)(=O)N1Cc2ccc(C#CC3CCCC3)cc2C1 [Example 342]
0.1 to 0.5 µM	COc1cc(C(=O)O)c(F)cc1NS(=O)(=O)c1ccn(-c2ccc([C@H]3CC[C@H](C(F)(F)F)CC3)cc2)n1 [Example 692]
< 0.1 µM	COc1cc(C(=O)O)ccc1NS(=O)(=O)c1ccc(C2=CCC(c3ccccc3)CC2)cc1F (centres unmarked) [Example 343, 4-((3-fluoro-2′,3′,4′,5′-tetrahydro-[1,1′:4′,1″-terphenyl])-4-sulfonamido)-3-methoxybenzoic acid]
0.1 to 0.5 µM	COc1cc(C(=O)O)ccc1NS(=O)(=O)c1csc(-c2ccc(C34CC5CC(CC(C5)C3)C4)cc2)n1 [Example 507]
1 to 100 µM	Cc1nc(S(=O)(=O)Nc2ccc(C(=O)O)cc2)cs1 [Example 53]
< 0.1 µM	COc1cc(C(=O)O)c(F)cc1NS(=O)(=O)c1csc(-c2ccc([C@H]3CC[C@H](C(C)C)CC3)c(F)c2C)n1 [Example 806]
0.1 to 0.5 µM	CCCCC[C@H]1CC[C@H](c2ccc(-c3nc(S(=O)(=O)Nc4ccc(C(=O)O)cc4OC)cs3)c(F)c2)CC1 [Example 707]
1 to 100 µM	O=C(O)c1ccc(CNS(=O)(=O)c2cnc(-c3ccc(F)cc3)s2)cc1 [Example 29]
0.1 to 0.5 µM	COc1cc(C(=O)O)ccc1NS(=O)(=O)c1cccc(-c2ccc(C3CCC(C)(C)CC3)cc2)c1F [Example 473]
0.1 to 0.5 µM	COc1cc(C(=O)O)c(F)cc1NS(=O)(=O)c1ncc(-c2ccc(C3CCCCC3)cc2)s1 [Example 616]
1 to 100 µM	COc1ccc(CC2CCCN(c3nc(S(=O)(=O)Nc4ccc(C(=O)O)cc4OC)cs3)C2)cc1 (centres unmarked) [Example 275]

IC50	SMILES
0.1 to 0.5 µM	CCC[C@H]1CC[C@H](C2CCC(c3nc(S(=O)(=O)Nc4ccc(C(=O)O)cc4OC)cs3)CC2)CC1 (some centres unmarked) [Example 381]
1 to 100 µM	O=C(O)Cc1ccc(NS(=O)(=O)c2cnc(-c3ccc(F)cc3)s2)cc1 [Example 27]
0.1 to 0.5 µM	O=C(O)c1ccc(NS(=O)(=O)c2cnc(-c3ccc(F)cc3)s2)c(F)c1F [Example 50]
< 0.1 µM	O=C(O)c1ccc(NS(=O)(=O)c2cnc(-c3ccc(F)cc3)s2)c(O)c1F [Example 62]
1 to 100 µM	COc1cc(C(=O)O)ccc1NS(=O)(=O)c1csc(C#Cc2ccc(C(N)=O)cc2)n1 [Example 224]
0.1 to 0.5 µM	CCC[C@H]1CC[C@H](C2CC=C(c3nc(S(=O)(=O)Nc4ccc(C(=O)O)cc4OC)cs3)CC2)CC1 (some centres unmarked) [Example 379]
1 to 100 µM	COc1cc(C(=O)O)ccc1NS(=O)(=O)c1ccc(-c2cnc(-c3ccc(C4CCCCC4)cc3)s2)cc1 [Example 378, 4-((4-(2-(4-cyclohexylphenyl)thiazol-5-yl)phenyl)sulfonamido)-3-methoxybenzoic acid]
0.5 to 1 µM	O=C(O)c1ccc(NS(=O)(=O)c2csc(-c3ccccc3)n2)cc1 [Example 15]
0.1 to 0.5 µM	COc1cc(C(=O)O)c(F)cc1NS(=O)(=O)c1csc(-c2ccc(C3CCC(C)(C)CC3)c(F)c2OC)n1 [Example 549]
0.1 to 0.5 µM	CC[C@H]1CC[C@H](c2ccc(-c3nc4cc(S(=O)(=O)Nc5cc(F)c(C(=O)O)cc5OC)ccc4o3)cc2)CC1 [Example 670, 4-((2-(4-((1r,4r)-4-ethylcyclohexyl)phenyl)benzo[d]oxazole)-5-sulfonamido)-2-fluoro-5-methoxybenzoic acid]
1 to 100 µM	COc1cc(C(=O)O)ccc1NS(=O)(=O)c1ccc2sc(-c3ccc(F)cc3)nc2c1 [Example 323]
0.1 to 0.5 µM	COc1cc(C(=O)O)ccc1NS(=O)(=O)c1csc(-c2ccc(C3CCCCC3)cc2)n1 [Example 281, 4-((2-(4-cyclohexylphenyl)thiazole)-4-sulfonamido)-3-methoxybenzoic acid]
< 0.1 µM	COc1cccc(C#Cc2nc(S(=O)(=O)Nc3cc(F)c(C(=O)O)cc3OC)cs2)c1 [Example 242]
0.1 to 0.5 µM	COc1cc(C(=O)O)c(F)cc1NS(=O)(=O)c1csc(-c2ccc([C@H]3CC[C@@H](C(C)C)CC3)cc2C(F)(F)F)n1 [Example 619]
1 to 100 µM	COC(=O)c1ccc(NS(=O)(=O)c2cnc(-c3ccc(F)cc3)s2)cc1C [Example 18]
0.1 to 0.5 µM	COc1cc(C(=O)O)ccc1NS(=O)(=O)c1cnc(-c2ccc(C3=CC(C)(C)CC(C)(C)C3)cc2)s1 [Example 708]
< 0.1 µM	COc1cc(C(=O)O)c(F)cc1NS(=O)(=O)c1csc(-c2ccc(-c3ccc(C(C)(F)F)cc3)cc2C(F)(F)F)n1 [Example 756]
0.1 to 0.5 µM	COc1cc(C(=O)O)c(F)cc1NS(=O)(=O)c1csc(-c2cc(F)c(C3=CCC(C)(C)CC3)c(F)c2)n1 [Example 516]
1 to 100 µM	CC(C)(C)c1ccc(S(=O)(=O)NC(=O)OCc2ccc(NS(=O)(=O)c3cnc(-c4ccc(F)cc4)s3)cc2)cc1 [Example 38, 4-((2-(4-fluorophenyl)thiazole)-5-sulfonamido)benzyl ((4-(tert-butyl)phenyl)sulfonyl)carbamate]
1 to 100 µM	COc1cc(C(=O)O)ccc1NS(=O)(=O)c1csc(NCc2ccccc2)n1 [Example 164]
1 to 100 µM	COc1cc(C(=O)O)ccc1NS(=O)(=O)c1csc(N2CCCC(CCc3ccccc3)C2)n1 (centres unmarked) [Example 277]
0.1 to 0.5 µM	COc1cc(C(=O)O)ccc1NS(=O)(=O)c1csc(-c2ccc(C3CCCC(OC)C3)cc2)n1 (centres unmarked) [Example 426, 3-methoxy-4-((2-(4-(3-methoxycyclohexyl)phenyl)thiazole)-4-sulfonamido)benzoic acid]

IC50	SMILES
< 0.1 µM	COc1cc(C(=O)O)ccc1NS(=O)(=O)c1csc(C#Cc2ccccc2F)n1 [Example 204]
0.1 to 0.5 µM	COc1cc(C(=O)O)c(F)cc1NS(=O)(=O)c1csc(-c2ccc(-c3cnoc3)cc2)n1 [Example 651]
0.1 to 0.5 µM	COc1cc(C(=O)O)ccc1NS(=O)(=O)c1csc(N2CC=C(c3ccccc3)C2)n1 [Example 268]
< 0.1 µM	COc1cc(C(=O)O)c(F)cc1NS(=O)(=O)c1csc(-c2ccc(-c3cc(F)c(C(F)(F)F)c(F)c3)c(OC(C)C)c2F)n1 [Example 790]
< 0.1 µM	CCOc1c(C2CCC(C)(C)CC2)ccc(-c2nc(S(=O)(=O)Nc3cc(F)c(C(=O)O)cc3OC)cs2)c1F [Example 570]
0.1 to 0.5 µM	COc1cc(C(=O)O)c(F)cc1NS(=O)(=O)c1csc(-c2ccc(C34CC5C[C@H](C3)C[C@H](C5)C4)cc2)n1 [Example 732]
0.1 to 0.5 µM	COc1cc(C(=O)O)ccc1NS(=O)(=O)c1cnc(-c2ccccc2)s1 [Example 158]
< 0.1 µM	COC(=O)c1ccc(C#Cc2nc(S(=O)(=O)Nc3ccc(C(=O)O)cc3OC)cs2)cc1OC(F)(F)F [Example 398]
< 0.1 µM	COc1cc(C(=O)O)ccc1NS(=O)(=O)c1csc(C#Cc2cccc(C(F)(F)F)c2)n1 [Example 202]
0.1 to 0.5 µM	COc1cc(C(=O)O)c(F)cc1NS(=O)(=O)c1csc(-c2ccc(-c3ccc(C4CCC(C(C)C)CC4)cc3C(F)(F)F)cc2C(F)(F)F)n1 (centres unmarked) [Example 753]
1 to 100 µM	COc1cc(-c2nnn[nH]2)ccc1NS(=O)(=O)c1cnc(-c2ccc(F)cc2)s1 [Example 135]
0.1 to 0.5 µM	CCCOc1c(C2=CCC(C)(C)CC2)ccc(-c2nc(S(=O)(=O)Nc3cc(F)c(C(=O)O)cc3OC)cs2)c1F [Example 576]
< 0.1 µM	COc1cc(C(=O)O)c(F)cc1NS(=O)(=O)c1csc(C#Cc2ccc(C(C)C)cc2)n1 [Example 241]
< 0.1 µM	COc1cc(C(=O)O)c(F)cc1NS(=O)(=O)c1csc(-c2ccc(C3=CCC(C(C)(C)C)CC3)cc2)n1 (centres unmarked) [Example 747]
0.1 to 0.5 µM	COc1cc(C(=O)O)c(F)cc1NS(=O)(=O)c1ccc2sc(-c3ccc([C@H]4CC[C@H](C(F)(F)F)CC4)cc3)nc2c1 [Example 650]
1 to 100 µM	COc1cc(C(=O)O)c(C)cc1NS(=O)(=O)c1csc(-c2ccc(C3CCC(C)(C)CC3)cc2C(F)(F)F)n1 [Example 702]
< 0.1 µM	COc1cc(C(=O)O)c(F)cc1NS(=O)(=O)c1csc(C#CC2CCC(C)(C)CC2)n1 [Example 514]
0.1 to 0.5 µM	COc1cc(C(=O)O)ccc1NS(=O)(=O)c1ccc(-c2cccc(-c3ccc(F)cc3)c2)s1 [Example 251]
1 to 100 µM	COc1cc(C(=O)O)c(F)cc1NS(=O)(=O)c1ccc2nc(-c3ccc(C4CCC(C)(C)CC4)cc3)sc2c1 [Example 700]
1 to 100 µM	CNc1cc(C(=O)O)ccc1NS(=O)(=O)c1csc(-c2ccc(C3CCC(C)(C)CC3)cc2C(F)(F)F)n1 [Example 705]
1 to 100 µM	COc1cc(C(=O)O)ccc1NS(=O)(=O)c1csc(N2CCC(c3ccccc3)CC2)n1 [Example 256]
